Laboratory results from patent US8906925B2, “Pyrido[4,3-B]indoles containing rigid moieties” (Medivation Technologies, Inc., priority 2008, dated 2014).

What was measured:
histamine receptor H1 = histamine receptor H1 (Homo sapiens, UniProt P35367); test: Histamine H1 radioligand binding ([3H]Pyrilamine); conditions: read-out: Histamine Binding (1 μM) H1, percent inhibition of specific binding, 1 μM
Summary of the method: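 Values are percent inhibition of specific [3H]pyrilamine (1.2 nM) binding with compounds at ≤1 μM (1% DMSO vehicle); 180 min incubation at 25 °C, pH 7.4 Tris buffer, on CHO-expressed human H1 receptor; 1 μM pyrilamine defined nonspecific binding, bound ligand counted after filtration.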

[1] = biological target: human dopamine D2L receptor (Homo sapiens, UniProt P14416); test: Dopamine D2L radioligand binding ([3H]Spiperone); conditions: percent inhibition of specific binding; compound at 1 μM; read-out: Inhibition of ligand binding, Dopamine D2L
Sequence of human dopamine D2L receptor (P14416 whole entry): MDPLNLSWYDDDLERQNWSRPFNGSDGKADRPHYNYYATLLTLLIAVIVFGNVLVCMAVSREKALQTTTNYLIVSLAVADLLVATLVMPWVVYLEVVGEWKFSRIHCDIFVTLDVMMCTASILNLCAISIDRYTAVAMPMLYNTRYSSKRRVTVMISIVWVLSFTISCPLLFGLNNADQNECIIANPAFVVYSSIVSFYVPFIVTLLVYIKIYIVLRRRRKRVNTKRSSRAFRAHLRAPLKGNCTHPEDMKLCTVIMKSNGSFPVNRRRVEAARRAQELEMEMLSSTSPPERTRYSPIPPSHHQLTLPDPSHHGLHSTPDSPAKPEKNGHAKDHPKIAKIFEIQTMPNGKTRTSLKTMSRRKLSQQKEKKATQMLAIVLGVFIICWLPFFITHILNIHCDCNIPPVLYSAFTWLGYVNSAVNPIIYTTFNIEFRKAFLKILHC
Source text: Non-specific binding was estimated in the presence of […] Haloperidol. Receptor proteins were filtered and washed, the filters were then counted to determine [^3H]Spiperone specifically bound. […] Biochemical assay results are presented as the percent inhibition of specific binding in Table 9.

[2] = biological target: T1, human recombinant serotonin (5-Hydroxytryptamine) 5-HT2A receptor (Homo sapiens, UniProt P28223); test: Serotonin 5-HT2A radioligand binding ([3H]Ketanserin); conditions: read-out: Inhibition of ligand binding, Serotonin 5-HT2A (percent inhibition of specific binding), compound at 0.1 μM
T1 construct: expressed in transfected cells; host or cells: Chinese hamster ovary (CHO-K1) cells
T1 sequence (P28223 whole entry): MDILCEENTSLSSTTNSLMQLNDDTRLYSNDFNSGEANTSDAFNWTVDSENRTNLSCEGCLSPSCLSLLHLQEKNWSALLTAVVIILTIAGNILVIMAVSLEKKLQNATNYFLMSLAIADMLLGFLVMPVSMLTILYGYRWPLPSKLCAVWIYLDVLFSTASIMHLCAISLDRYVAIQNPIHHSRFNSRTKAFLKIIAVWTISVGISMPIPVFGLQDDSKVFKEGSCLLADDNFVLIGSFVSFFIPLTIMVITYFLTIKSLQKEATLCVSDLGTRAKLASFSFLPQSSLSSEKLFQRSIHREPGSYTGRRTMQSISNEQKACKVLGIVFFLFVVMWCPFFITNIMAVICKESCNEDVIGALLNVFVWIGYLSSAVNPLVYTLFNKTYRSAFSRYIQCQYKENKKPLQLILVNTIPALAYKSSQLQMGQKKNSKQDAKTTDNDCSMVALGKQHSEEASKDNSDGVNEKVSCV
Protocol: (§1) Compounds of the invention were incubated with 0.5 nM [^3H]Ketanserin for 60 min. at 25° C. Non-specific binding was estimated in the presence of 1 μM Mianserin. Receptor proteins were filtered and washed, the filters were then counted to determine [^3H]Ketanserin specifically bound.

[3] = biological target: T2, human recombinant serotonin (5-Hydroxytryptamine) 5-HT2C receptor (Homo sapiens, UniProt P28335); test: Serotonin 5-HT2C radioligand binding ([3H]Mesulergine); conditions: compound at 0.1 μM; read-out: Inhibition of ligand binding, Serotonin 5-HT2C (percent inhibition of specific binding)
T2 construct: expressed in transfected cells; host or cells: Chinese hamster ovary (CHO-K1) cells
T2 sequence (P28335 33-458): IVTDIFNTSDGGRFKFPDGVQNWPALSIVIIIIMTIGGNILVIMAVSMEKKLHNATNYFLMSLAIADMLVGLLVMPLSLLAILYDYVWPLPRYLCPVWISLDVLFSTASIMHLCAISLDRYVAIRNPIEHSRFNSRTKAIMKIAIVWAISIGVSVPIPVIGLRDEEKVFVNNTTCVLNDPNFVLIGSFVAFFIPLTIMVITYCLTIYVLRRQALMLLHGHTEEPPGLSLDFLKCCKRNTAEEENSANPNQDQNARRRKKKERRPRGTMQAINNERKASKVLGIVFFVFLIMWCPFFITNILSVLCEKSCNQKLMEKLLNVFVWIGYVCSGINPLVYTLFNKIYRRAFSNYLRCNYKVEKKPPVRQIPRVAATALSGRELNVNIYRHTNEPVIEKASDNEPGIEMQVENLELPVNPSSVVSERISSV
Protocol: as §1, with “1” for “0.5”, “[^3H]Mesulergine” for “[^3H]Ketanserin”, “bound. Compounds were screened at 1 μM or lower, using 1% DMSO as vehicle. Biochemical assay results are presented as the percent inhibition of specific binding in Table 10.” for “bound.”

[4] = biological target: T3, human recombinant serotonin (5-Hydroxytryptamine) 5-HT6 receptor (Homo sapiens, UniProt P50406); test: Serotonin 5-HT6 radioligand binding ([3H]LSD); conditions: compound at 0.1 μM; read-out: Inhibition of ligand binding, Serotonin 5-HT6 (percent inhibition of specific binding)
T3 construct: expressed in transfected cells; host or cells: human HeLa cells
T3 sequence (P50406 whole entry): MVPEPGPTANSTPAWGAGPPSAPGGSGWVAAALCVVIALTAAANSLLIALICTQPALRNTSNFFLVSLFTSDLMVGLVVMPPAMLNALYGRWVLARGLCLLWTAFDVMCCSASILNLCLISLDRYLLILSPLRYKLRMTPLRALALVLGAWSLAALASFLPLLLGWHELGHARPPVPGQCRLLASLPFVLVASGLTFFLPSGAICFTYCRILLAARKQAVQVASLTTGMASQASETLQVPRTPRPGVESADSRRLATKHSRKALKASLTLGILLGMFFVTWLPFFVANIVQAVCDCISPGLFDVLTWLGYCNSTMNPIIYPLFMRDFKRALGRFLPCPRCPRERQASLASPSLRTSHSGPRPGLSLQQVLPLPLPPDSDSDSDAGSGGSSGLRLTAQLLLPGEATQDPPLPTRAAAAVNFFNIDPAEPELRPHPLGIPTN
Protocol: Compounds of the invention were incubated with 1.5 nM [3H]Lysergic acid diethylamide (LSD) for 120 min. at 37° C. […] Receptor proteins were filtered and washed, the filters were then counted to determine [3H]LSD specifically bound. Compounds were screened at 1 μM or lower, using 1% DMSO as vehicle. Biochemical assay results are presented as the percent inhibition of specific binding in Table 10.

[5] = biological target: human recombinant serotonin (5-Hydroxytryptamine) 5-HT7 receptor (Homo sapiens, UniProt P34969); test: Serotonin 5-HT7 radioligand binding ([3H]LSD); conditions: compound at 0.1 μM; read-out: Inhibition of ligand binding, Serotonin 5-HT7 (percent inhibition of specific binding)
Sequence of human recombinant serotonin (5-Hydroxytryptamine) 5-HT7 receptor (P34969 whole entry): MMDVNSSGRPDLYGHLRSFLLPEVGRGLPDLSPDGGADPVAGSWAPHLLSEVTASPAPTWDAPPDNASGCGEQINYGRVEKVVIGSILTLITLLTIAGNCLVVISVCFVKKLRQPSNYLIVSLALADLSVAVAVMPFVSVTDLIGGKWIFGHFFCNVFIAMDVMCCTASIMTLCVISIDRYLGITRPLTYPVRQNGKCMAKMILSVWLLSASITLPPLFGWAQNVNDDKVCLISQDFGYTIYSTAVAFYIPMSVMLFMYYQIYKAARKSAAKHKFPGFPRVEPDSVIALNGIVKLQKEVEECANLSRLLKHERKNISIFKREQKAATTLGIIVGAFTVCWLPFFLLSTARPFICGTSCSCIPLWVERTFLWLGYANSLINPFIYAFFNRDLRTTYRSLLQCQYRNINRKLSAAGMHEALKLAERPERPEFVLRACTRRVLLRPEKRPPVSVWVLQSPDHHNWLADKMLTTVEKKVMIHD
Source text: Receptor proteins were filtered and washed, the filters were then counted to determine [^3H]LSD specifically bound.

Sequence of histamine receptor H1 (P35367 whole entry): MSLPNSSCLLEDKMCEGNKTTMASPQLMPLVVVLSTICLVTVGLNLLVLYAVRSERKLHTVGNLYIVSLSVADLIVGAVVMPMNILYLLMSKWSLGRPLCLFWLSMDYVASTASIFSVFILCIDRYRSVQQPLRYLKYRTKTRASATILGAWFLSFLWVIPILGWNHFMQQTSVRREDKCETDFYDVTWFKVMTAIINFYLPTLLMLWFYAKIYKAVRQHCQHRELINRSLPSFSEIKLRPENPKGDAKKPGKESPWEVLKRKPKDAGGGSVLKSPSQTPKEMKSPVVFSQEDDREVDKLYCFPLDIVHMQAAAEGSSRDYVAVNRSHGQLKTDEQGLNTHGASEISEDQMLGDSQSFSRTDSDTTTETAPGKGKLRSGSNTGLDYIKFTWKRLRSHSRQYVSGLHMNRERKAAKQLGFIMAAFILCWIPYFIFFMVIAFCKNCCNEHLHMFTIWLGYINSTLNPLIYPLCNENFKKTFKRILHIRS

SMILES | inhibition at 1 µM (histamine receptor H1) | inhibition at 1 µM [1] | inhibition at 0.1 µM [2] | inhibition at 0.1 µM [3] | inhibition at 0.1 µM [4] | inhibition at 0.1 µM [5]
CC/C(=C/n1c2c(c3cc(C)ccc31)CN(C)CC2)c1ccncc1 [Compound 281, (Z)-2,8-dimethyl-5-(2-(pyridin-4-yl)but-1-enyl)-2,3,4,5-tetrahydro-1H-pyrido[4,3-b]indole] | 42% | 51% | 103% | 96% | 78% | 93%
Cc1ccc2c(c1)c1c(n2/C=C(/c2ccncc2)C(C)(C)C)CCN(C)C1 [Compound 280, (E)-5-(3,3-dimethyl-2-(pyridin-4-yl)but-1-enyl)-2,8-dimethyl-2,3,4,5-tetrahydro-1H-pyrido[4,3-b]indole] | 12% | 52% | 83% | 86% | 56% | 20%
CCN1CCc2c(c3cc(C)ccc3n2/C=C(\C)c2ccncc2)C1 [Compound 269, (E)-2-ethyl-8-methyl-5-(2-(pyridin-4-yl)prop-1-enyl)-2,3,4,5-tetrahydro-1H-pyrido[4,3-b]indole] | -2% | 91% | 87% | 55% | 102% | 51%
C/C(=C\n1c2c(c3cc(Cl)ccc31)CN(C)C(C)C2)c1ccc(F)cc1 (stereo not drawn) [Compound 262, (E)-8-chloro-5-(2-(4-fluorophenyl)prop-1-enyl)-2,3-dimethyl-2,3,4,5-tetrahydro-1H-pyrido[4,3-b]indole] | 66% | 97% | 99% | 100% | 99% | 94%
COc1ccc([C@](C)(O)Cn2c3c(c4cc(C)ccc42)CN(C)CC3)cc1 [Compound 191, 1-(2,8-dimethyl-3,4-dihydro-1H-pyrido[4,3-b]indol-5(2H)-yl)-2-(4-methoxyphenyl)propan-2-ol] | 23% | 15% | 98% | 94% | 45% | 69%
CC(C)/C(=C/n1c2c(c3cc(Cl)ccc31)CN(C)CC2)c1ccncc1 [Compound 265, (Z)-8-chloro-2-methyl-5-(3-methyl-2-(pyridin-4-yl)but-1-enyl)-2,3,4,5-tetrahydro-1H-pyrido[4,3-b]indole] | 22% | 73% | 96% | 89% | 97% | 52%
C/C(=C\n1c2c(c3cc(Cl)c(Cl)cc31)CN(C)CC2)c1ccc(F)cc1 [Compound 248, (E)-7,8-dichloro-5-(2-(4-fluorophenyl)prop-1-enyl)-2-methyl-2,3,4,5-tetrahydro-1H-pyrido[4,3-b]indole] | 90% | 95% | 108% | 92% | 101% | 57%
Cc1ccc2c(c1)c1c(n2/C=C(\c2ccncc2)C(C)C)CCN(C)C1 [Compound 264, (Z)-2,8-dimethyl-5-(3-methyl-2-(pyridin-4-yl)but-1-enyl)-2,3,4,5-tetrahydro-1H-pyrido[4,3-b]indole] | 24% | 49% | 99% | 94% | 89% | 51%
Cc1ccc2c(c1)c1c(n2CC(C)(O)c2cnccn2)CCN(C)C1 (stereo not drawn) [Compound 200, 1-(2,8-dimethyl-3,4-dihydro-1H-pyrido[4,3-b]indol-5(2H)-yl)-2-(pyrazin-2-yl)propan-2-ol] | 45% | 6% | 30% | 17% | 20% | 31%
